What was measured:
[1] = molecular target: T1, M1 muscarinic acetylcholine receptor (Rattus norvegicus, UniProt P08482); assay: In vitro two-photon FRET response of M1-TN-XXL neurofluocytes to bath-applied neurotransmitters; assay type: cell-based; details: ACh applied at 10 nM to 10 μM via bath perfusion
T1 construct: expressed in transfected cells
T1 sequence (P08482 1-460): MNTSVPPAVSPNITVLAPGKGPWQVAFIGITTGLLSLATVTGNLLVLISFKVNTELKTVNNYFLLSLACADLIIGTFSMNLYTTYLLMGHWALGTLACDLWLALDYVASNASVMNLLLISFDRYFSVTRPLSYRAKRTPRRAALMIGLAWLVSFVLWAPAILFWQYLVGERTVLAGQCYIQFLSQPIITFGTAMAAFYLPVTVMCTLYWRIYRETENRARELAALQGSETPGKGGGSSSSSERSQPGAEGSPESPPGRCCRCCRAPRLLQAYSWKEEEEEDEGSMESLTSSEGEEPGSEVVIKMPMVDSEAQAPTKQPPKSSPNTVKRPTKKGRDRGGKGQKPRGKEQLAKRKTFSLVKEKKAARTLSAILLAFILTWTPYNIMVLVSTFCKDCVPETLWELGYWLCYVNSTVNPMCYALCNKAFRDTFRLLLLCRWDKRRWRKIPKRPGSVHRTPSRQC
From the text: The state of each cell is imaged with in vivo two-photon laser scanning microscopy (TPLSM). In another implementation, HEK293 cells were transfected with the Ca^2+-coupled M1 muscarinic receptor and the genetically encoded FRET-based Ca^2+ biosensor TN-XXL. In the presence of acetylcholine (ACh), a M1-mediated Ca^2+ increase is transduced by TN-XXL into a FRET-based optical signal.
ACh-neurofluocytes expressing a muscarinic receptor and fluorescent protein. […] These cells are referred to here as M1-TN-XXL neuro-fluocytes. HEK-293 cells were transduced with lentiviruses modified to carry the M1 muscarinic acetylcholine receptor or the TN-XXL FRET intracellular calcium indicator as transgenes. Clonal cells were selected subsequently based on the highest response to acetylcholine in vitro.
M1-TN-XXL neurofluocytes. ACh-neurofluocytes were tested in vitro for their sensitivity to acetylcholine. […] FIG. 2a provides a diagram of the detection mechanism.

muscarinic receptors = assay: Response of implanted neurofluocytes to NBM stimulation after intracerebral injection of antagonist
Procedure: Urethane-anesthetized rats were injected with HEK293 cells loaded with Calcium Green in the cerebral cortex and a bipolar stimulating electrode was implanted in NBM together with ECoG-recording electrodes to detect desynchronization in cerebral cortex upon NBM stimulation.
A similar set of experiments was conducted with stably transfected M1-TN-XXL neurofluocytes.

[2] = molecular target: T2, ionotropic receptor 5-HT3A (Rattus norvegicus, UniProt P35563); assay: In vitro response of HEK cells transiently cotransfected with 5-HT3A and TN-XXL to bath-applied serotonin; assay type: cell-based; details: 3-10 μm serotonin applied in the bath
T2 construct: expressed in transfected cells; host or cells: HEK cells, transient co-transfection with TN-XXL
T2 sequence (P35563 24-483): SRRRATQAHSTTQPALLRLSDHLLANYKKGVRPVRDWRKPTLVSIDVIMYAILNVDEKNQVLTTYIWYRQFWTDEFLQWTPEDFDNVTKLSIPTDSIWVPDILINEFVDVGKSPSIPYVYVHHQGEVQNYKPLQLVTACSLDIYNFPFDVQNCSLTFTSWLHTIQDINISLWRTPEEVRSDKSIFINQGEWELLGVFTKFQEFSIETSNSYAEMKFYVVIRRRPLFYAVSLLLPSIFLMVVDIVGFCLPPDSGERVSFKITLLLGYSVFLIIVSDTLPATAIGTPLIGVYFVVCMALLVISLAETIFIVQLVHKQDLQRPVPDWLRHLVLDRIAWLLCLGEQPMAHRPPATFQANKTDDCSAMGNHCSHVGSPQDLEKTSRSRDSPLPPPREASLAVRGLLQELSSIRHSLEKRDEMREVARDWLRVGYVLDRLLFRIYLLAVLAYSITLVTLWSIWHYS

Compound	FRET response / sensitivity of ACh-neurofluocytes to neurotransmitter [1]	response of 5-HT3A/TN-XXL cells [2]	effect on responses of neurofluocytes to NBM stimulation (muscarinic receptors)
NCCCC(=O)O [GABA]	insensitive	–	–
CN1[C@@H]2CC[C@H]1C[C@@H](OC(=O)C(CO)c1ccccc1)C2 (stereo partly shown) [atropine]	–	–	abolished
N[C@@H](CCC(=O)O)C(=O)O [glutamate]	insensitive	–	–

The next lines start with results.

FRET response / sensitivity of ACh-neurofluocytes to neurotransmitter [1]	response of 5-HT3A/TN-XXL cells [2]	Compound	effect on responses of neurofluocytes to NBM stimulation (muscarinic receptors)
insensitive	responded robustly	NCCc1c[nH]c2ccc(O)cc12 [serotonin]	–
insensitive	–	NC[C@H](O)c1ccc(O)c(O)c1 [norepinephrine]	–
insensitive	–	NCCc1ccc(O)c(O)c1 [dopamine]	–

Source: patent publication US8663604B2, “Method for measuring neurotransmitters in vivo” (The Regents of the University of California, priority 2007, dated 2014)
